Results reported in patent publication US10323022B2, “Pyrrolidinyl urea, pyrrolidinyl thiourea and pyrrolidinyl guanidine compounds as TrkA kinase inhibitors” (Array BioPharma Inc., priority 2011, dated 2019).

biological target: TrkA (Homo sapiens (Human), UniProt P04629); experiment: TrkA Omnia Assay; type: biochemical; conditions: averaged IC50; 20 nM enzyme, 500 μM ATP, 10 μM peptide substrate
Summary of the method: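 Recombinant TrkA (20 nM) preincubated 10 min at ambient temperature with compound, then Omnia Tyr Peptide #4 (10 μM) and ATP (500 μM) added in 25 mM MOPS pH 7.5, 5 mM MgCl2, 0.005% Triton X-100. Fluorescence (ex 360/em 485 nm) followed continuously for 70 min; IC50 from initial rates by 4- or 5-parameter logistic fit.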

TrkA, sequence (P04629 33-796): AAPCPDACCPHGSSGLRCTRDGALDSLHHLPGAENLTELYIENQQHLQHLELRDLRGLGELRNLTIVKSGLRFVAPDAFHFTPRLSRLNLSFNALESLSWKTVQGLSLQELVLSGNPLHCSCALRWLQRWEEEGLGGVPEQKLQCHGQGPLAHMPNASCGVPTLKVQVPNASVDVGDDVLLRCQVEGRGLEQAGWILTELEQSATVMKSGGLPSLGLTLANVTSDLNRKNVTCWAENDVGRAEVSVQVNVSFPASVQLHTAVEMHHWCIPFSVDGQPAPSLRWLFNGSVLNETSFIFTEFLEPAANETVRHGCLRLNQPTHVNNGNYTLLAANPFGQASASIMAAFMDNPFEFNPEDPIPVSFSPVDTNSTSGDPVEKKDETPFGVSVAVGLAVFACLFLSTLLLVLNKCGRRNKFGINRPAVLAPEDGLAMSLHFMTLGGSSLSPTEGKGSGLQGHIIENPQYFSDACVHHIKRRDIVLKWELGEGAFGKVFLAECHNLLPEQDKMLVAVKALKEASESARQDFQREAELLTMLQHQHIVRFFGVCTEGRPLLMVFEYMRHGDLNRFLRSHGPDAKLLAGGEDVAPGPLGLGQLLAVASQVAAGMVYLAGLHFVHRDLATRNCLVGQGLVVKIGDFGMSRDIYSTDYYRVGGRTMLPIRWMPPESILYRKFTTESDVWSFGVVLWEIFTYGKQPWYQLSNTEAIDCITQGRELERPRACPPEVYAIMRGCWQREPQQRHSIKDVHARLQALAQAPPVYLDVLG

| SMILES | IC50 [µM] |
| --- | --- |
| COCCN1C[C@@H](NC(=O)Nc2c(C)c(OCC3(C)COC3)nn2-c2ccccc2)[C@H](c2ccc(F)c(F)c2)C1 [Example 75, 1-((3S,4R)-4-(3,4-difluorophenyl)-1-(2-methoxyethyl)pyrrolidin-3-yl)-3-(4-methyl-3-((3-methyloxetan-3-yl)methoxy)-1-phenyl-1H-pyrazol-5-yl)urea] | < 0.1 |
| COCCN1C[C@@H](NC(=O)Nc2c(C)c(OC[C@H]3COC(C)(C)O3)nn2-c2ccccc2)[C@H](c2ccc(F)c(F)c2)C1 [Example 76, 1-((3S,4R)-4-(3,4-difluorophenyl)-1-(2-methoxyethyl)pyrrolidin-3-yl)-3-(3-(((S)-2,2-dimethyl-1,3-dioxolan-4-yl)methoxy)-4-methyl-1-phenyl-1H-pyrazol-5-yl)urea] | < 0.1 |
| COCCN1C[C@@H](NC(=O)Nc2c(C)c(OC[C@@H]3COC(C)(C)O3)nn2-c2ccccc2)[C@H](c2ccc(F)c(F)c2)C1 [Example 77, 1-((3S,4R)-4-(3,4-difluorophenyl)-1-(2-methoxyethyl)pyrrolidin-3-yl)-3-(3-(((R)-2,2-dimethyl-1,3-dioxolan-4-yl)methoxy)-4-methyl-1-phenyl-1H-pyrazol-5-yl)urea] | < 0.1 |
| COCCN1C[C@@H](NC(=O)Nc2c3c(nn2-c2ccccc2)CN(C(=O)OC(C)(C)C)C3)[C@H](c2ccccc2)C1 [Example 79, tert-butyl 3-(3-((3S,4R)-1-(2-methoxyethyl)-4-phenylpyrrolidin-3-yl)ureido)-2-phenyl-4,6-dihydropyrrolo[3,4-c] pyrazole-5(2H)-carboxylate] | 1 to 10 |
| COCCN1C[C@@H](NC(=O)Nc2c(C)c(C(C)C)nn2-c2ccccc2)[C@H](c2ccccc2)C1 [Example 80, 1-(3-isopropyl-4-methyl-1-phenyl-1H-pyrazol-5-yl)-3-((3S,4R)-1-(2-methoxy-ethyl)-4-phenylpyrrolidin-3-yl)urea] | < 0.1 |
| COCCN1C[C@@H](NC(=O)Nc2c3c(nn2-c2ccccc2)COC3)[C@H](c2ccccc2)C1 [Example 81, 1-((3S,4R)-1-(2-methoxy-ethyl)-4-phenylpyrrolidin-3-yl)-3-(2-phenyl-4,6-dihydro-2H-furo[3,4-c]pyrazol-3-yl)urea] | < 0.1 |
| COCCN1C[C@@H](NC(=O)Nc2c3c(nn2-c2ccccc2)CSC3)[C@H](c2ccccc2)C1 [Example 82, 1-((3S,4R)-1-(2-methoxy-ethyl)-4-phenylpyrrolidin-3-yl)-3-(2-phenyl-4,6-dihydro-2H-thieno[3,4-c]pyrazol-3-yl)urea] | < 0.1 |
| COCCN1C[C@@H](NC(=O)Nc2c(C)c(C)nn2-c2ccccc2)[C@H](c2cc(F)cc(F)c2)C1 [Example 83, 1-((3S,4R)-4-(3,5-difluoro-phenyl)-1-(2-methoxyethyl)pyrrolidin-3-yl)-3-(3,4-dimethyl-1-phenyl-1H-pyrazol-5-yl)urea] | < 0.1 |
| COCCN1C[C@@H](NC(=O)Nc2c3c(nn2-c2ccccc2)CCC3)[C@H](c2cc(F)cc(F)c2)C1 [Example 84, 1-((3S,4R)-4-(3,5-difluoro-phenyl)-1-(2-methoxyethyl)pyrrolidin-3-yl)-3-(2-phenyl-2,4,5,6-tetrahydro-cyclopenta[c]pyrazol-3-yl)urea] | < 0.1 |
| COCCN1C[C@@H](NC(=O)Nc2cc(C(C)C)nn2-c2ccccc2)[C@H](c2cc(F)cc(F)c2)C1 [Example 85, 1-((3S,4R)-4-(3,5-difluoro-phenyl)-1-(2-methoxyethyl)pyrrolidin-3-yl)-3-(3-isopropyl-1-phenyl-1H-pyrazol-5-yl)urea] | < 0.1 |
| COCCN1C[C@@H](NC(=O)Nc2cc(C)nn2-c2ccccc2)[C@H](c2cc(F)cc(F)c2)C1 [Example 86, 1-((3S,4R)-4-(3,5-difluoro-phenyl)-1-(2-methoxyethyl)pyrrolidin-3-yl)-3-(3-methyl-1-phenyl-1H-pyrazol-5-yl)urea] | < 0.1 |
| COCCN1C[C@@H](NC(=O)Nc2c3c(nn2-c2ccccc2)COC3)[C@H](c2cc(F)cc(F)c2)C1 [Example 88, 1-((3S,4R)-4-(3,5-difluoro-phenyl)-1-(2-methoxyethyl)pyrrolidin-3-yl)-3-(2-phenyl-4,6-dihydro-2H-furo[3,4-c]pyrazol-3-yl) urea] | < 0.1 |
| COCCN1C[C@@H](NC(=O)Nc2c3c(nn2-c2ccccc2)CSC3)[C@H](c2cc(F)cc(F)c2)C1 [Example 89, 1-((3S,4R)-4-(3,5-difluoro-phenyl)-1-(2-methoxyethyl)pyrrolidin-3-yl)-3-(2-phenyl-4,6-dihydro-2H-thieno[3,4-c]pyrazol-3-yl) urea] | < 0.1 |
| COCCN1C[C@@H](NC(=O)Nc2c3c(nn2-c2ccccc2)COC3)[C@H](c2ccc(F)c(F)c2)C1 [Example 90, 1-((3S,4R)-4-(3,4-difluoro-phenyl)-1-(2-methoxyethyl)pyrrolidin-3-yl)-3-(2-phenyl-4,6-dihydro-2H-furo[3,4-c]pyrazol-3-yl) urea] | < 0.1 |
| COCCN1C[C@@H](NC(=O)Nc2c3c(nn2-c2ccccc2)CSC3)[C@H](c2ccc(F)c(F)c2)C1 [Example 91, 1-((3S,4R)-4-(3,4-difluoro-phenyl)-1-(2-methoxyethyl)pyrrolidin-3-yl)-3-(2-phenyl-4,6-dihydro-2H-thieno[3,4-c]pyrazol-3-yl) urea] | < 0.1 |
| COCCN1C[C@@H](NC(=O)Nc2c(C)c(C)nn2-c2ccccc2)[C@H](c2ccc(F)c(F)c2)C1 [Example 92, 1-((3S,4R)-4-(3,4-difluoro-phenyl)-1-(2-methoxyethyl)pyrrolidin-3-yl)-3-(3,4-dimethyl-1-phenyl-1H-pyrazol-5-yl)urea] | < 0.1 |
| COCCN1C[C@@H](NC(=O)Nc2cc(-c3ccccc3)nn2C)[C@H](c2ccc(F)c(F)c2)C1 [Example 93, 1-((3S,4R)-4-(3,4-difluoro-phenyl)-1-(2-methoxyethyl)pyrrolidin-3-yl)-3-(1-methyl-3-phenyl-1H-pyrazol-5-yl)urea] | < 0.1 |
| COCCN1C[C@@H](NC(=O)Nc2cc(C(C)(C)CO)nn2-c2ccccc2)[C@H](c2ccccc2)C1 [Example 94, 1-(3-(1-hydroxy-2-methyl-propan-2-yl)-1-phenyl-1H-pyrazol-5-yl)-3-((3S,4R)-1-(2-methoxyethyl)-4-phenylpyrrolidin-3-yl)urea] | 0.1 to 1 |
| COCCN1C[C@@H](NC(=O)Nc2c3c(nn2-c2ccccc2)C[S+]([O-])C3)[C@H](c2ccccc2)C1 (stereo partly drawn) [Example 95, 1-((3S,4R)-1-(2-methoxy-ethyl)-4-phenylpyrrolidin-3-yl)-3-(5-oxido-2-phenyl-4,6-dihydro-2H-thieno [3,4-c]pyrazol-3-yl)urea] | < 0.1 |
| COCCN1C[C@@H](NC(=O)Nc2cc(-c3ccncc3)nn2C)[C@H](c2ccccc2)C1 [Example 96, 1-((3S,4R)-1-(2-methoxy-ethyl)-4-phenylpyrrolidin-3-yl)-3-(1-methyl-3-(pyridin-4-yl)-1H-pyrazol-5-yl)urea] | < 0.1 |
| COCCN1C[C@@H](NC(=O)Nc2cc(-c3ccncc3)nn2C)[C@H](c2ccc(F)c(F)c2)C1 [Example 97, 1-((3S,4R)-4-(3,4-difluorophenyl)-1-(2-methoxyethyl)pyrrolidin-3-yl)-3-(1-methyl-3-(pyridin-4-yl)-1H-pyrazol-5-yl)urea] | < 0.1 |
| COCCN1C[C@@H](NC(=O)Nc2cc(-c3ccccc3)nn2C)[C@H](c2cc(F)cc(F)c2)C1 [Example 98, 1-((3S,4R)-4-(3,5-difluorophenyl)-1-(2-methoxyethyl)pyrrolidin-3-yl)-3-(1-methyl-3-phenyl-1H-pyrazol-5-yl) urea] | < 0.1 |
| COCCN1C[C@@H](NC(=O)Nc2cc(-c3cccs3)nn2C)[C@H](c2cc(F)cc(F)c2)C1 [Example 99, 1-((3S,4R)-4-(3,5-difluorophenyl)-1-(2-methoxyethyl)pyrrolidin-3-yl)-3-(1-methyl-3-(thiophen-2-yl)-1H-pyrazol-5-yl)urea] | < 0.1 |
| COCCN1C[C@@H](NC(=O)Nc2cc(COC)nn2-c2ccccc2)[C@H](c2ccccc2)C1 [Example 100, 1-((3S,4R)-1-(2-methoxy-ethyl)-4-phenylpyrrolidin-3-yl)-3-(3-(methoxy-methyl)-1-phenyl-1H-pyrazol-5-yl)urea] | 0.1 to 1 |
| COCCN1C[C@@H](NC(=O)Nc2c(C)c(COC)nn2-c2ccccc2)[C@H](c2ccccc2)C1 [Example 101, 1-((3S,4R)-1-(2-methoxy-ethyl)-4-phenylpyrrolidin-3-yl)-3-(3-(methoxy-methyl)-4-methyl-1-phenyl-1H-pyrazol-5-yl) urea] | < 0.1 |
| COCCN1C[C@@H](NC(=O)Nc2cc(-c3ccc(C)cc3)nn2C)[C@H](c2ccc(F)c(F)c2)C1 [Example 102, 1-((3S,4R)-4-(3,4-difluorophenyl)-1-(2-methoxyethyl)pyrrolidin-3-yl)-3-(1-methyl-3-p-tolyl-1H-pyrazol-5-yl)urea] | < 0.1 |
| COCCN1C[C@@H](NC(=O)Nc2cc(-c3cccc(C)c3)nn2C)[C@H](c2ccc(F)c(F)c2)C1 [Example 103, 1-((3S,4R)-4-(3,4-difluorophenyl)-1-(2-methoxyethyl)pyrrolidin-3-yl)-3-(1-methyl-3-m-tolyl-1H-pyrazol-5-yl) urea] | < 0.1 |
| COCCN1C[C@@H](NC(=O)Nc2cc(-c3ccccc3C)nn2C)[C@H](c2ccc(F)c(F)c2)C1 [Example 104, 1-((3S,4R)-4-(3,4-difluorophenyl)-1-(2-methoxyethyl)pyrrolidin-3-yl)-3-(1-methyl-3-o-tolyl-1H-pyrazol-5-yl) urea] | < 0.1 |
| COCCN1C[C@@H](NC(=O)Nc2cc(-c3cccc(OC)c3)nn2C)[C@H](c2ccc(F)c(F)c2)C1 [Example 105, 1-((3S,4R)-4-(3,4-difluorophenyl)-1-(2-methoxyethyl)pyrrolidin-3-yl)-3-(3-(3-methoxy-phenyl)-1-methyl-1H-pyrazol-5-yl)urea] | < 0.1 |
| COCCN1C[C@@H](NC(=O)Nc2cc(-c3ccccc3OC)nn2C)[C@H](c2ccc(F)c(F)c2)C1 [Example 106, 1-((3S,4R)-4-(3,4-difluorophenyl)-1-(2-methoxyethyl)pyrrolidin-3-yl)-3-(3-(2-methoxy-phenyl)-1-methyl-1H-pyrazol-5-yl)urea] | 0.1 to 1 |
